Assay results as given in paper PMC7778606, “Development of the phenylpyrazolo[3,4-d]pyrimidine-based, insulin-like growth factor receptor/Src/AXL-targeting small molecule kinase inhibitor” (Theranostics, 2021).

Tests used:
H460 cells = experiment: MTT assay, viability of H460 cells; format: cell-based; details: Homo sapiens, NCI-H460, 72 h, three days, read-out: IC50 against the viability
Procedure: (§1) Cells were seeded into 96-well plates at a density of 1-2 × 10^3 cells/well and incubated for 24 h. Cells were treated with vehicle or various concentrations of test compounds for two (PC9 and PC9/ER cells) or three (other cells) days. Cells were further incubated with MTT solution (final concentration of 500 μg/mL) for 4 h at 37 °C. The formazan products were dissolved in dimethyl sulfoxide (DMSO), and the absorbance was measured at 570 nm. The data are presented as a percentage of the control group.

AXL = experiment: Western blot, phosphorylation of AXL in H1944 and A549 cells; format: cell-based, human; details: 100 nM monotherapy, 1 day
Procedure: (§2) Before harvesting, the cells were stimulated with 10% FBS for 20 min. Total cell lysates were prepared with modified radioimmunoprecipitation assay lysis buffer (50 mM Tris-HCl [pH 7.4], 150 mM NaCl, 1 mM EDTA, 0.25% sodium deoxycholate, 1% Triton X-100, 100 mM NaF, 5 mM Na3VO4, 1 mM PMSF, 1 μg/mL aprotinin, 1 μg/mL leupeptin, and 1 μg/mL pepstatin). Equal amounts of protein (20 μg) were subjected to 8% SDS-PAGE and electrically transferred onto polyvinylidene difluoride membranes (Bio-Rad Laboratories, Hercules, CA, USA). Membranes were blocked with blocking buffer (3% BSA in Tris-buffered saline containing 0.1% Tween-20 [TBST]) for 1 h at room temperature. The membranes were incubated with primary antibodies diluted in 3% BSA in TBST (1:1,000) overnight at 4 °C, washed multiple times with TBST, and incubated with secondary antibodies diluted in 3% nonfat dry milk in TBST (1:5,000) for 1 h at room temperature. The membranes were washed multiple times with TBST and visualized using an enhanced chemiluminescence detection kit (Thermo Fisher Scientific). Densitometric analysis was performed using ImageJ software.

H1299 cells = experiment: MTT assay, viability of H1299 cells; format: cell-based; details: Homo sapiens, NCI-H1299, 72 h, three days, read-out: IC50 against the viability
Procedure: as §1

A549 cells = experiment: MTT assay, viability of A549 cells; format: cell-based; details: Homo sapiens, 72 h; A549, MTT assay, 10 μM; read-out: % cells growth at 10 μM
Procedure: as §1

IGF-1R = experiment: Western blot, phosphorylation of IGF-1R in H1944 and A549 cells; format: cell-based, human; details: 2 μM monotherapy, 1 day
Procedure: as §2

Row | IC50 (H460 cells) | IC50 (H1299 cells) | SMILES | phosphorylation of AXL (AXL) | activity at 10 µM (A549 cells) | phosphorylation of IGF-1R (IGF-1R)
1 |  |  | COc1cc(Nc2c(C#N)cnc3cc(OCCCN4CCN(C)CC4)c(OC)cc23)c(Cl)cc1Cl [Bosutinib, bosutinib, reference compound] |  | 46% | 
2 |  |  | Cc1ccc(-c2n[nH]c3ncnc(N)c23)cc1 [Compound 1a] |  | 98% | 
3 |  |  | Oc1ccc(Nc2nccc(Nc3cnc4ccccc4c3)n2)cc1 [Compound 23a] |  | 69% | 
4 | 540 nM | 20 nM | Cc1nc(Nc2ncc(C(=O)Nc3c(C)cccc3Cl)s2)cc(N2CCN(CCO)CC2)n1 [Dasatinib, dasatinib] |  |  | 
5 | 3780 nM | 12800 nM | C[C@]1(O)C[C@@H](c2nc(-c3ccc4ccc(-c5ccccc5)nc4c3)c3c(N)nccn32)C1 [Linsitinib] |  |  | suppressed phosphorylation

Row | SMILES | IC50 (H460 cells) | IC50 (H1299 cells) | phosphorylation of AXL (AXL) | activity at 10 µM (A549 cells) | phosphorylation of IGF-1R (IGF-1R)
6 | Nc1nc(Nc2ccc3c(c2)CC[C@@H](N2CCCC2)CC3)nn1-c1cc2c(nn1)-c1ccccc1CCC2 [Bemcentinib, bemcentinib] | 180 nM | 530 nM | suppressed phosphorylation |  | 
